Measured values taken from US5021408A, “Hydrocortisone-17-oxo-21-thioesters, their preparation and their uses as medicaments” (Jouveinal S.A., priority 1983, dated 1991).
Where two headings read alike, the source gives them in different places.

What was measured:
[1] = test system: inflammation of the ear in the mouse; assay: Local anti-inflammatory activity, croton oil ear inflammation (method derived from Tonelli); assay type: in vivo; conditions: for Anti-inflammatory activity EC50: mouse ear, croton oil, concentration giving 50% reduction in inflammation vs controls; for Anti-inflammatory activity: Activity/ref. 21 act. hydro: relative to hydrocortisone-21-acetate = 1
Description: I.1. Local anti-inflammatory activity
This study was carried out in accordance with a method derived from that of Tonelli (Endocrinology, Vol. 77, page 625, 1965).
The test consists of causing inflammation of the ear in the mouse using a croton oil-based irritating solution.
The addition of a local anti-inflammatory substance to this solution leads to a reduced inflammation action compared with that of the controls, i.e. treated with the irritating solution only.
The results of the study are expressed in EC50, which is the p/v % concentration of the dissolved product able to bring about a 50% reduction in the inflammation compared with that caused in the controls.

thymus weight = assay: Systemic (thymolytic) activity, thymus weight reduction after oral administration; assay type: in vivo, rat (Wistar)
Description: (§1) Determination of systemic activity side effects
(§2) These effects were evaluated by means of their thymolytic activity.
(§3) The repeated administration of systemic activity products leads to a weakening of the defence systems of the organism. More especially in young animals, this leads to a reduction in the weight of two organs of the reticuloendothelial system, namely the spleen and the thymus, the latter being the most sensitive to this effect.
(§4) This activity was determined by means of a study of the activity of products on the weight reduction of the thymus of animals.
(§5) The product to be studied, suspended in 5% p/v gum arabic were orally administered daily for four consecutive days to young rats of the Wistar strain. Under the same conditions, a control batch of animals received an identical volume of the excipient.
(§6) 96 hours after the first administration, the animals were killed and their thymus removed and immediately weighed.
(§7) The results of the study are expressed in ED50, which corresponds to the daily dose in milligrams able to bring about a 50% thymus weight reduction for 1 kilogram animal weight, compared with the controls (mg/kg^-1 /day^-1).

[2] = as above; assay type: in vivo, rat (Wistar); conditions: rat
Description: as §1, §2, §3, §4, §5, §6, §7

[3] = Dissociation ratio R local anti-inflammatory activity / systemic activity; assay type: in vivo, mouse (ear inflammation) and rat (thymus); conditions: lower value = greater dissociation of activities
Description: The results obtained by this study make it possible to calculate the activity ratio:
local anti-inflammatory activity
The value of this ratio indicates the dissociation of the activities and is inversely proportional to the size of the dissociation, i.e. the lower this value, the greater the dissociation.
This value was calculated on the basis of the expression: [formula]

erythema = conditions: reported by O. J. Lorenzetti; cited from earlier work
granuloma = conditions: according to N. Bodor; cited from earlier work
[4] = relative to hydrocortisone-21-acetate = 1
[5] = young Wistar rats, oral, daily for four consecutive days, 50% thymus weight reduction vs controls, read-out: Systemic activity ED50

CCCCC(=O)O[C@]1(C(=O)CSC(C)=O)CC[C@H]2[C@@H]3C[C@H](C)C4=CC(=O)C=C[C@]4(C)[C@H]3[C@@H](O)C[C@@]21C [6-α-methylprednisolone-21-thioacetate-17-valerate]
Anti-inflammatory activity EC50 [1]: 0.5 % p/v
Anti-inflammatory activity: Activity/ref. 21 act. hydro [1]: 0.6
Systemic activity: Activity/ref. 21 act. hydro (thymus weight; rat, in vivo, 5760 min): 0.325
ED50 at 96 h ([2]; in vivo, po): 43 mg/kg
R (local anti-inflammatory activity / systemic activity) [3]: 116.3

CCCC(=O)O[C@]1(C(=O)CSC(C)=O)CC[C@H]2[C@@H]3CCC4=CC(=O)CC[C@]4(C)[C@H]3[C@@H](O)C[C@@]21C [Example 1, 3,20-dione-11β-hydroxypregn-4-ene-21-thioacetate-17-butyrate]
Anti-inflammatory activity EC50 [1]: 0.0082 % p/v
Anti-inflammatory activity: Activity/ref. 21 act. hydro [1]: 36.6
Systemic activity: Activity/ref. 21 act. hydro (thymus weight; rat, in vivo, 5760 min): 0.04
systemic activity, times lower than that of prednisolone-21-thioacetate-17-valerate (thymus weight; rat, in vivo, po, 5760 min): 6 times
ED50 at 96 h ([2]; in vivo, po): 350 mg/kg
R (local anti-inflammatory activity / systemic activity) [3]: 0.23

CCCC(=O)O[C@]1(C(=O)CSC(=O)CC)CC[C@H]2[C@@H]3CCC4=CC(=O)CC[C@]4(C)[C@H]3[C@@H](O)C[C@@]21C [Example 2, 3,20-dione-11β-hydroxypregn-4-ene-21-thiopropionate-17-butyrate]
Anti-inflammatory activity EC50 [1]: 0.021 % p/v
Anti-inflammatory activity: Activity/ref. 21 act. hydro [1]: 14.3
Systemic activity: Activity/ref. 21 act. hydro (thymus weight; rat, in vivo, 5760 min): < 0.0096
ED50 at 96 h ([2]; in vivo, po): > 1450 mg/kg
R (local anti-inflammatory activity / systemic activity) [3]: 0.14

CCCC(=O)O[C@]1(C(=O)COC(=O)CC)CC[C@H]2[C@@H]3CCC4=CC(=O)CC[C@]4(C)[C@H]3[C@@H](O)C[C@@]21C [Hydrocortisone-21-propionate-17-butyrate, hydrocortisone-21-propionate-17-butyrate]
Anti-inflammatory activity EC50 [1]: 0.0047 % p/v
Anti-inflammatory activity: Activity/ref. 21 act. hydro [1]: 63.8
Systemic activity: Activity/ref. 21 act. hydro (thymus weight; [4]): 1.95
ED50 at 96 h [2, 5]: 7.2 mg/kg
R (local anti-inflammatory activity / systemic activity) [3]: 6.52

CC(C)(C)C(=O)SCC(=O)[C@@]1(O)CC[C@H]2[C@@H]3CCC4=CC(=O)CC[C@]4(C)[C@H]3[C@@H](O)C[C@@]21C [Hydrocortisone-21-thiopivalate, hydrocortisone-21-thiopivalate]
Anti-inflammatory activity EC50 [1]: 2.5 % p/v
Anti-inflammatory activity: Activity/ref. 21 act. hydro [1]: 0.12
Systemic activity: Activity/ref. 21 act. hydro (thymus weight; [4]): 0.0038
ED50 at 96 h ([2]; in vivo, young Wistar rats, oral, daily for four consecutive days, 50% thymus weight reduction vs controls, read-out: Systemic activity ED50): 3600 mg/kg
R (local anti-inflammatory activity / systemic activity) [3]: 6.90

CCCCC(=O)O[C@]1(C(=O)COC(C)=O)CC[C@H]2[C@@H]3CCC4=CC(=O)C=C[C@]4(C)[C@H]3[C@@H](O)C[C@@]21C [Prednisolone-21-acetate-17-valerate, prednisolone-21-acetate-17-valerate]
Anti-inflammatory activity EC50 [1]: 0.0018 % p/v
Anti-inflammatory activity: Activity/ref. 21 act. hydro [1]: 167
Systemic activity: Activity/ref. 21 act. hydro (thymus weight; rat, in vivo, 5760 min): 1.60
ED50 at 96 h ([2]; in vivo, po): 9 mg/kg
R (local anti-inflammatory activity / systemic activity) [3]: 2.0

CCCCC(=O)O[C@]1(C(=O)CSC(C)=O)CC[C@H]2[C@@H]3CCC4=CC(=O)C=C[C@]4(C)[C@H]3[C@@H](O)C[C@@]21C [Prednisolone-21-thioacetate-17-valerate]
Anti-inflammatory activity EC50 [1]: 0.008 % p/v
Anti-inflammatory activity: Activity/ref. 21 act. hydro [1]: 37.5
Systemic activity: Activity/ref. 21 act. hydro (thymus weight; rat, in vivo, 5760 min): 0.24
ED50 at 96 h ([2]; in vivo, po): 58 mg/kg
R (local anti-inflammatory activity / systemic activity) [3]: 1.38

CCC(=O)O[C@]1(C(=O)CSC(=O)CC)[C@@H](C)C[C@H]2[C@@H]3CCC4=CC(=O)C=C[C@]4(C)[C@@]3(Cl)[C@@H](O)C[C@@]21C [beclomethasone-21-thiopropionate-17-propionate]
Anti-inflammatory activity EC50 [1]: 0.0175 % p/v
Anti-inflammatory activity: Activity/ref. 21 act. hydro [1]: 17.1
Systemic activity: Activity/ref. 21 act. hydro (thymus weight; rat, in vivo, 5760 min): 0.74
ED50 at 96 h ([2]; in vivo, po): 19 mg/kg
R (local anti-inflammatory activity / systemic activity) [3]: 9.21

CCC(=O)O[C@]1(C(=O)CSC(C)=O)[C@@H](C)C[C@H]2[C@@H]3CCC4=CC(=O)C=C[C@]4(C)[C@@]3(F)[C@@H](O)C[C@@]21C [betamethasone-21-thioacetate-17-propionate]
Anti-inflammatory activity EC50 [1]: 0.010 % p/v
Anti-inflammatory activity: Activity/ref. 21 act. hydro [1]: 30.0
Systemic activity: Activity/ref. 21 act. hydro (thymus weight; rat, in vivo, 5760 min): 5.60
ED50 at 96 h ([2]; in vivo, po): 2.5 mg/kg
R (local anti-inflammatory activity / systemic activity) [3]: 40.0

CCC(=O)SCC(=O)[C@@]1(OC(C)=O)[C@@H](C)C[C@H]2[C@@H]3CCC4=CC(=O)C=C[C@]4(C)[C@@]3(F)[C@@H](O)C[C@@]21C [betamethasone-21-thiopropionate-17-acetate]
Anti-inflammatory activity EC50 [1]: 0.012 % p/v
Anti-inflammatory activity: Activity/ref. 21 act. hydro [1]: 25.0
Systemic activity: Activity/ref. 21 act. hydro (thymus weight; rat, in vivo, 5760 min): 5.83
ED50 at 96 h ([2]; in vivo, po): 2.4 mg/kg
R (local anti-inflammatory activity / systemic activity) [3]: 50.0

CCC(=O)O[C@]1(C(=O)CSC(=O)CC)[C@@H](C)C[C@H]2[C@@H]3CCC4=CC(=O)C=C[C@]4(C)[C@@]3(F)[C@@H](O)C[C@@]21C [betamethasone-21-thiopropionate-17-propionate]
Anti-inflammatory activity EC50 [1]: 0.0013 % p/v
Anti-inflammatory activity: Activity/ref. 21 act. hydro [1]: 231
Systemic activity: Activity/ref. 21 act. hydro (thymus weight; rat, in vivo, 5760 min): 4.66
ED50 at 96 h ([2]; in vivo, po): 3 mg/kg
R (local anti-inflammatory activity / systemic activity) [3]: 4.33

CC(=O)O[C@]1(C(=O)CSC(=O)CC(C)(C)C)[C@H](C)C[C@H]2[C@@H]3CCC4=CC(=O)C=C[C@]4(C)[C@@]3(F)[C@@H](O)C[C@@]21C [dexamethasone-21-thiotertiobutylacetate-17-acetate]
Anti-inflammatory activity EC50 [1]: 0.0092 % p/v
Anti-inflammatory activity: Activity/ref. 21 act. hydro [1]: 32.6
Systemic activity: Activity/ref. 21 act. hydro (thymus weight; rat, in vivo, 5760 min): 4.67
ED50 at 96 h ([2]; in vivo, po): 3 mg/kg
R (local anti-inflammatory activity / systemic activity) [3]: 30.7

CCCC(=O)O[C@]1(C(=O)CO)CC[C@H]2[C@@H]3CCC4=CC(=O)CC[C@]4(C)[C@H]3[C@@H](O)C[C@@]21C [hydrocortisone-17-butyrate]
activity in the erythema test compared with the vasoconstriction test (erythema): good similarity of activity compared with the vasoconstriction test
activity in the granuloma test (granuloma): only has a limited activity in the granuloma test

CC(=O)OCC(=O)[C@@]1(O)CC[C@H]2[C@@H]3CCC4=CC(=O)CC[C@]4(C)[C@H]3[C@@H](O)C[C@@]21C [hydrocortisone-21-acetate]
Anti-inflammatory activity EC50 [1]: 0.30 % p/v
Anti-inflammatory activity: Activity/ref. 21 act. hydro [1]: 1
Systemic activity: Activity/ref. 21 act. hydro (thymus weight; [4]): 1
ED50 at 96 h [2, 5]: 14 mg/kg
R (local anti-inflammatory activity / systemic activity) [3]: 214
